Entries after “also recorded” stand apart in the source; their conditions may differ.

From US20230158084A1, “PROBIOTICS, METABOLITES, AND USES THEREOF” (California Institute of Technology, priority 2018, published 2023) come the findings set out here.

Assay type in all cases: in vivo, mouse
In assay [1] the test system is BTBR mice. As to the kind of experiment: ASD-related behaviors overall (marble burying, direct social interaction, open field) in BTBR mice. As to conditions: for ASD-related behaviors, administration post weaning: BTBR mice, 10 mM in drinking water to juvenile mice starting 3-4 weeks of age through adulthood; for ASD-related behaviors / symptoms, prenatal administration: BTBR mouse model, 10 mM orally in drinking water from before mating (conception) through adulthood. The protocol:
FIGS. 5A-D are a series of drawings illustrating that differential metabolites impact ASD-relevant behaviors in SPF mice in accordance with some embodiments herein. FIG. 5A: The abundance of select metabolites in the offspring microbiome is correlated with behavior of male offspring. Spearman correlation between the microbiome and mouse behavior, by donor (See FIGS. 1A-0). […] Color scale denotes Spearman ρ. […] Groups of mice were orally administered 10 mM Taurine or 5AV in drinking water before mating, and throughout their lifetime. Offspring were tested by marble burying, direct social interaction, and open field tests, and compared to untreated vehicle controls. Results are aggregated from 2 independent experiments. NControl=42, […]=52, NTaurine=36. Bar plots denote mean and S.E.M. Hypothesis on differences in means were tested by ANOVA on trimmed means (10%) and subsequent posthoc tests. FIGS. 5E-L: qPCR of BTBR brains after 5AV and taurine administration. Results are aggregated from 2 independent experiments. Hypothesis on differences in means were tested by ANOVA on trimmed means (10%) and subsequent posthoc tests. FIGS. 5M-V: series of graphs illustrating E18 B6 feeding 5AV and Taurine targeted metabolomics. […] In FIGS. 9A-K, mice were orally administered 10 mM Taurine or 5AV in drinking water starting 3-4 weeks of age mating, and throughout their lifetime. Offspring were tested by marble burying, direct social interaction, and open field tests, and compared to untreated vehicle controls. Results are aggregated from 2 independent experiments. NControl=20, […]=18, NTaurine=20. Bar plots denote mean and S.E.M. hypothesis on differences means were tested by ANOVA on trimmed means (10%) and subsequent posthoc tests. FIGS. 9L-Q illustrate basal properties of L5 pyramidal neurons in the mPFC. […] Taurine was orally administered to BTBR mice, a validated mouse model for ASD (McFarlane et al., 2008), from conception through adulthood to capture both prenatal and postnatal neurodevelopmental periods. […] It is will appreciated that the blood-brain barrier comprises endothelial cells, and selectively permits the movement of substances between circulating blood and the brain, for example permitting some molecules to pass from the blood to the brain, while preventing other molecules from passing from the blood to the brain. As such, it will be appreciated that at a given stage of development, some molecules may readily pass through the blood brain barrier, while others may not.

The subject of assay [2] is BTBR mice. As to the kind of experiment: Marble burying (MB), BTBR mice given metabolites. Conditions: BTBR offspring; 10 mM in drinking water before mating and throughout lifetime (prenatal administration); vs untreated vehicle controls. The procedure: FIGS. 5A-D are a series of drawings illustrating that differential metabolites impact ASD-relevant behaviors in SPF mice in accordance with some embodiments herein. FIG. 5A: The abundance of select metabolites in the offspring microbiome is correlated with behavior of male offspring. Spearman correlation between the microbiome and mouse behavior, by donor (See FIGS. 1A-0). […] Color scale denotes Spearman ρ. […] Groups of mice were orally administered 10 mM Taurine or 5AV in drinking water before mating, and throughout their lifetime. Offspring were tested by marble burying, direct social interaction, and open field tests, and compared to untreated vehicle controls. Results are aggregated from 2 independent experiments. NControl=42, […]=52, NTaurine=36. Bar plots denote mean and S.E.M. Hypothesis on differences in means were tested by ANOVA on trimmed means (10%) and subsequent posthoc tests. FIGS. 5E-L: qPCR of BTBR brains after 5AV and taurine administration. Results are aggregated from 2 independent experiments. Hypothesis on differences in means were tested by ANOVA on trimmed means (10%) and subsequent posthoc tests. […] The number of buried marbles (50% or more covered) was then recorded and photographed for reference. […] As such, it will be appreciated that at a given stage of development, some molecules may readily pass through the blood brain barrier, while others may not.

For assay [3], the system named is BTBR mice. Put plainly: Open field testing (OFT), BTBR mice given metabolites. As to conditions: BTBR offspring; 10 mM in drinking water before mating and throughout lifetime (prenatal administration); vs untreated vehicle controls. The procedure: FIGS. 5A-D are a series of drawings illustrating that differential metabolites impact ASD-relevant behaviors in SPF mice in accordance with some embodiments herein. FIG. 5A: The abundance of select metabolites in the offspring microbiome is correlated with behavior of male offspring. Spearman correlation between the microbiome and mouse behavior, by donor (See FIGS. 1A-0). […] Color scale denotes Spearman ρ. […] Groups of mice were orally administered 10 mM Taurine or 5AV in drinking water before mating, and throughout their lifetime. Offspring were tested by marble burying, direct social interaction, and open field tests, and compared to untreated vehicle controls. Results are aggregated from 2 independent experiments. NControl=42, […]=52, NTaurine=36. […] Open field testing (OFT)-OFT, as a measure for locomotion and anxiety, was performed in 50×50 cm^2 white plexiglas arenas, recorded using an overhead camera, and tracked and analyzed using the EthoVision XT 10 software package (Noldus Information Technology). […] The distance traveled, as well as the number of entries and time spend in a 30×30 cm^2 center square, were analyzed by the EthoVision software. […] As such, it will be appreciated that at a given stage of development, some molecules may readily pass through the blood brain barrier, while others may not.

`NCCCCC(=O)O` [5AV, 5-Aminovaleric acid]: in the assay with BTBR mice [1], the “ASD-related behaviors, administration post weaning” value is “did not rescue behavioral alterations; also recorded: no effects on ASD-related behaviors; also recorded: did not have these effects” and the “ASD-related behaviors / symptoms, prenatal administration” value (shortened to “ASD-related behaviors / symptoms”) is listed as “significant improvement in ASD-related behaviors; also recorded: ameliorate ASD-related behavioral deficits; also recorded: reduces and/or prevents symptoms of ASD”. The “repetitive behavior, as measured by marble burying” value with BTBR mice [2] is reported as “reduced repetitive behavior”.

Turning to `NCCS(=O)(=O)O` [taurine], the “anxiety, as measured by center duration in the OFT” value in the assay with BTBR mice [3] is recorded as “reduces anxiety”. In the assay on BTBR mice [1], the “ASD-related behaviors, administration post weaning” value is given as “did not rescue behavioral alterations; also recorded: did not have these effects” and the “ASD-related behaviors / symptoms” value was “significant improvement in ASD-related behaviors; also recorded: reduces and/or prevents symptoms of ASD”. Moreover, in the assay with BTBR mice [1] (listed as Taurine), the “ASD-related behaviors, administration post weaning” value is given as “no effects on ASD-related behaviors” and the “ASD-related behaviors / symptoms” value is on record as “ameliorate ASD-related behavioral deficits”. Further, in the assay with BTBR mice [2], the “repetitive behavior, as measured by marble burying” value is “significantly reduces repetitive behavior in male mice”.
